Source: ChEMBL document CHEMBL5113463, “Discovery and preclinical evaluations of JBD0131, a novel nitrodihydro-imidazooxazole anti-tuberculosis agent” (Bioorg Med Chem Lett, 2022)
Values after ≈ are worked out from the molar mass of the structure shown.

Assays:
[1] = Metabolic stability in human liver microsomes assessed as half life; type: ADME, Microsome
[2] = tested on: Mycobacterium tuberculosis; experiment: Antimycobacterial activity against Mycobacterium tuberculosis H37Rv assessed as bacterial growth inhibition incubated for 7 days by MABA assay; type: functional; settings: 168 h, time 7 day
[3] = Volume of distribution in CD-1 mouse at 0.6 mg/kg, iv; type: ADME, organism-based; settings: in vivo
[4] = AUC (0-last) in CD-1 mouse at 5 mg/kg, po; type: ADME, organism-based; design: dose 5 mg/kg, route po; settings: mouse, in vivo
[5] = Aqueous solubility of compound at pH 7.4; type: physicochemical; settings: buffer
[6] = Efflux ratio of apparent permeability across basolateral to apical over apical to basolateral membrane in dog MDCK cells; type: ADME, cell-based, Canis lupus familiaris
[7] = Plasma protein binding in mouse assessed as bound fraction; type: ADME, cell-free; settings: read-out: PPB (converted)
[8] = Plasma protein binding in rat assessed as bound fraction; type: ADME, cell-free; settings: read-out: PPB (converted)
[9] = Plasma protein binding in human assessed as bound fraction; type: ADME, cell-free; settings: read-out: PPB (converted)
[10] = target: T1, Cytochrome P450 2C8 (Homo sapiens, UniProt P10632); experiment: Inhibition of CYP2C8 (unknown origin); type: ADME
T1 sequence (P10632 whole entry): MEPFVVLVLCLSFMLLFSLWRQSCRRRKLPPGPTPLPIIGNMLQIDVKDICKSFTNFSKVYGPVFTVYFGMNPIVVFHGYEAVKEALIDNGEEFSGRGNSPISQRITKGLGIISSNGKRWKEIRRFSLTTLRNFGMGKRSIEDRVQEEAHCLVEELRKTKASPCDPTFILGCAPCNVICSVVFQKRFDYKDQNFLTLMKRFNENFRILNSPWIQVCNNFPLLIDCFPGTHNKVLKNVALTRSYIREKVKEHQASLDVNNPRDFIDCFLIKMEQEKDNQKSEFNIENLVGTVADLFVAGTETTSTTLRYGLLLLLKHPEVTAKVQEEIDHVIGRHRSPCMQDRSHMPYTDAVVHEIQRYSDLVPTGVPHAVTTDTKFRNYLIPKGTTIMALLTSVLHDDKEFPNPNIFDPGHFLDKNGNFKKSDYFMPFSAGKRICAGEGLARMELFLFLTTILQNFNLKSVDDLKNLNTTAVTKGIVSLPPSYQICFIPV

[11] = target: Cytochrome P450 2D6 (Homo sapiens, UniProt P10635); experiment: Inhibition of CYP2D6 (unknown origin); type: ADME
Sequence of Cytochrome P450 2D6 (P10635 whole entry): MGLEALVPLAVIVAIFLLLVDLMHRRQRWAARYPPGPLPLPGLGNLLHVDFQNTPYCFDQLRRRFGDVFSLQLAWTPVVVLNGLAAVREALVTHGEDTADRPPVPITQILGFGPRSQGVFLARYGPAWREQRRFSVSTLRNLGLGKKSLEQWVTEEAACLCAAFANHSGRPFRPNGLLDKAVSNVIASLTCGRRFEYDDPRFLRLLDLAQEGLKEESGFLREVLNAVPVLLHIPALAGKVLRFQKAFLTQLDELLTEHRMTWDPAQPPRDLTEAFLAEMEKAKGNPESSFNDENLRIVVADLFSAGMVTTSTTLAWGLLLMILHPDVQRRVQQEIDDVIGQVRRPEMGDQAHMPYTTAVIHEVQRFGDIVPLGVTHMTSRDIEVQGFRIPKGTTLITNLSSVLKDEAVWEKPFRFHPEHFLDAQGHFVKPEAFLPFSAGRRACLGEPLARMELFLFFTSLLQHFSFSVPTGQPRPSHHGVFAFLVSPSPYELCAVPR

[12] = tested on: Mycobacterium tuberculosis; experiment: Antimycobacterial activity against Mycobacterium tuberculosis Erdman assessed as bacterial growth inhibition; type: functional
[13] = tested on: Mycobacterium tuberculosis; experiment: In vivo antimycobacterial activity against Mycobacterium tuberculosis Erdman infected mouse acute tuberculosis infection model assessed as reduction lung bacterial loads by measuring CFU at 10 to 100 mg/kg for 3 weeks at 5 days/week; type: functional, organism-based; settings: dose 10-100 mg/kg, DDE = dose-dependent effect
[14] = tested on: Mycobacterium tuberculosis; experiment: In vivo antimycobacterial activity against Mycobacterium tuberculosis Erdman infected mouse acute tuberculosis infection model assessed as reduction in log10 CFU at 10 mg/kg for 3 weeks at 5 days/week relative to control; type: functional
[15] = target: Voltage-dependent L-type calcium channel subunit alpha-1C (Homo sapiens, UniProt Q13936); experiment: Inhibition of human Cav1.2
Sequence of Voltage-dependent L-type calcium channel subunit alpha-1C (Q13936 whole entry): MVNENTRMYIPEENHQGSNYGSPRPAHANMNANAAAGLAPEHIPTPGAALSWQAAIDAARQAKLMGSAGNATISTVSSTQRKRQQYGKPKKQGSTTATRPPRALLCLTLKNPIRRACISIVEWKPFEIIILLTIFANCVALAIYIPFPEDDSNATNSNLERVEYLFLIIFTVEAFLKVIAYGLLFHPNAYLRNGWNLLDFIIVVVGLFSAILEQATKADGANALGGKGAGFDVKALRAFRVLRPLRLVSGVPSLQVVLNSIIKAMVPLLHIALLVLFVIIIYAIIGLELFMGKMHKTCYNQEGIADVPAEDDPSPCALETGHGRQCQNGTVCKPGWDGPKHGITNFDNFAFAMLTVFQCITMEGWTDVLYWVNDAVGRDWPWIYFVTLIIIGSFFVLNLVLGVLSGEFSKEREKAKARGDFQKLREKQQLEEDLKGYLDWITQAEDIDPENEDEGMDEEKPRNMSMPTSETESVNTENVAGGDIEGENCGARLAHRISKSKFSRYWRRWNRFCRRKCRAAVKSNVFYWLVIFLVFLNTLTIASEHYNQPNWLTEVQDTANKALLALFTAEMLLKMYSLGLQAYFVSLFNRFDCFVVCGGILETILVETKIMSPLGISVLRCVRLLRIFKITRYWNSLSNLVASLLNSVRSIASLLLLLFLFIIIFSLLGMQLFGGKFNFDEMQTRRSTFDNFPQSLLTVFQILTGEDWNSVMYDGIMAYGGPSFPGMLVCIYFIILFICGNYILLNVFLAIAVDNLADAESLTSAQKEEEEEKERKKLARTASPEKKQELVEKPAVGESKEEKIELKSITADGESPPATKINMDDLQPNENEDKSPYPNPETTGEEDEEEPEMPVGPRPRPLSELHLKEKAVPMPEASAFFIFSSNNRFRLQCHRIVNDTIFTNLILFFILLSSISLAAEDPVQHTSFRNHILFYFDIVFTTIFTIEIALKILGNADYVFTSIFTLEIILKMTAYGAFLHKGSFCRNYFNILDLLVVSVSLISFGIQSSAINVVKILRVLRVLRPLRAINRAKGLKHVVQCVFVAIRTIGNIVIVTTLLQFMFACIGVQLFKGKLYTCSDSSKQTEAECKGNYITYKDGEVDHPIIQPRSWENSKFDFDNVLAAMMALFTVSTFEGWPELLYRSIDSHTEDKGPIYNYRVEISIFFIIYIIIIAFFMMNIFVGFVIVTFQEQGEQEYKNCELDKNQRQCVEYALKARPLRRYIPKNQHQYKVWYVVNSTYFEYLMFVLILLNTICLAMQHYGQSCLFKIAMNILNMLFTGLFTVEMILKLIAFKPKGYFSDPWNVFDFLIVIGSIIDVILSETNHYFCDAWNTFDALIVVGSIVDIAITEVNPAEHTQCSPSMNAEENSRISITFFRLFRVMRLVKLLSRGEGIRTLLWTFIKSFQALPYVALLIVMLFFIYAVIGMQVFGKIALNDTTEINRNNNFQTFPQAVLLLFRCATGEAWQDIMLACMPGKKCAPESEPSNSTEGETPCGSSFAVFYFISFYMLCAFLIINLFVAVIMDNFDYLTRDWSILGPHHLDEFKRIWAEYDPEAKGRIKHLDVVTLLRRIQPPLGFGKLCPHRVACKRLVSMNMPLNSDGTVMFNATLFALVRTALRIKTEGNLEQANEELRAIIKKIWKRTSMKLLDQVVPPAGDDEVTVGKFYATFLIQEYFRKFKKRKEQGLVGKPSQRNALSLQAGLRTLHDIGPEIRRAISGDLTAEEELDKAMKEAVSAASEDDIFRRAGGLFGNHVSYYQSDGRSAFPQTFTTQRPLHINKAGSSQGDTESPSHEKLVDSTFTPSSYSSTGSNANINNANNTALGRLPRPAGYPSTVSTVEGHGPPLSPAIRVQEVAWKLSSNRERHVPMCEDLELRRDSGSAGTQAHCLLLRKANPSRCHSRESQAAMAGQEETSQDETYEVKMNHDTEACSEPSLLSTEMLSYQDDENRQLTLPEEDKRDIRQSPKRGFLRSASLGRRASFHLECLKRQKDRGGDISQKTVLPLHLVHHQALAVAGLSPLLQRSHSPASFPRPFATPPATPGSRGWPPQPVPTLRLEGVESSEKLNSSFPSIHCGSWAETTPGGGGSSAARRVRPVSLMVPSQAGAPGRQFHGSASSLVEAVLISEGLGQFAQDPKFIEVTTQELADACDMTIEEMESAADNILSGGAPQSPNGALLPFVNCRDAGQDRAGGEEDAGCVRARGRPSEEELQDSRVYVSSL

[16] = Half life in Sprague-Dawley rat at 1 mg/kg, iv; type: ADME, organism-based; settings: in vivo
[17] = Cmax in Sprague-Dawley rat at 4 mg/kg, po; type: ADME, organism-based; design: dose 4 mg/kg, route po; settings: in vivo
[18] = AUC (0-last) in Sprague-Dawley rat at 4 mg/kg, po; type: ADME, organism-based; settings: in vivo
[19] = Volume of distribution in Beagle dog at 0.5 mg/kg, iv; type: ADME, organism-based, Canis lupus familiaris; settings: in vivo
[20] = Half life in Beagle dog at 0.5 mg/kg, iv; type: ADME, organism-based, Canis lupus familiaris; settings: in vivo
[21] = Cmax in Beagle dog at 2 mg/kg, po; type: ADME, organism-based, Canis lupus familiaris; design: dose 2 mg/kg, route po; settings: in vivo
[22] = AUC (0-last) in Beagle dog at 2 mg/kg, po; type: ADME, organism-based, Canis lupus familiaris; settings: in vivo
[23] = Mutagenicity in Salmonella typhimurium by Ames test; type: toxicity; settings: salmonella enterica subsp. enterica serovar typhimurium; route au
[24] = Drug distribution in Sprague-Dawley rat lung at 10 mg/kg, po administered as C14-lableled compound and assessed as radioactivity; type: ADME, organism-based; settings: in vivo
[25] = Drug distribution in Sprague-Dawley rat intestinal wall at 10 mg/kg, po administered as C14-lableled compound and assessed as radioactivity; type: ADME, organism-based, Intestine; settings: in vivo
[26] = Drug distribution in Sprague-Dawley rat liver at 10 mg/kg, po administered as C14-lableled compound and assessed as radioactivity; type: ADME, organism-based; settings: in vivo

Structure (SMILES): C[C@]1(CN2Cc3nc(-c4ccc(F)cc4)sc3C2)CN=C(N)O1
- half-life [1]: 1.78 h
- MIC [2]: 0.035 µg/mL (≈ 0.105 µM)
- Vd [3]: 2.69 L/kg
- AUClast [4]: 7247 ng·h/mL
- solubility [5]: 13.5 µM (≈ 4.49 µg/mL)
- efflux ratio [6]: 0.76
- fraction unbound [7]: 0.018
- fraction unbound [8]: 0.055
- fraction unbound [9]: 0.018
- IC50 [10]: > 100 µM
- IC50 [11]: 80.6 µM
- MIC [12]: 0.109 µg/mL (≈ 0.328 µM)
- Activity [13]: Dde
- Activity [14]: 4 log10CFU
- IC50 [15]: > 13.3 µM
- half-life [16]: 2.79 h
- Cmax [17]: 526 nM
- AUClast [18]: 4520 ng·h
- Vd [19]: 4.52 L/kg
- half-life [20]: 6.03 h
- Cmax [21]: 141 nM
- AUClast [22]: 1910 ng·h
- Activity [23]: Non-Toxic
- Drug uptake [24]: Active
- Drug uptake [25]: Active
- Drug uptake [26]: Active
